The test system of series [1] is Staphylococcus aureus. Briefly: Induction of resistant development in lefamulin 5 passages resistance developed Staphylococcus aureus USA300 FPR3757 assessed as fold increase in MIC at sub-MIC concentration measured after 5 passages with conjugate by serial passage assay. Type of series: functional.
The subject of series [2] is Listeria. Description: Antibacterial activity against Listeria assessed as inhibition of visible growth incubated for 20 to 24 hrs by microbroth serial dilution assay. The format is functional, organism-based. The note with it: time 20-24 hrs. In general terms: In broth dilution the organism is exposed to a series of concentrations in liquid medium.
The target of series [3] is Cytochrome P450 3A4 (Homo sapiens, UniProt P08684). Briefly: Inhibition of CYP3A4 in pooled human liver microsomes using midazolam as substrate. The format is ADME, Microsome. (In general: Liver microsomes are vesicles of endoplasmic reticulum, rich in cytochrome P450 enzymes.)
Chain of Cytochrome P450 3A4 (P08684 whole entry): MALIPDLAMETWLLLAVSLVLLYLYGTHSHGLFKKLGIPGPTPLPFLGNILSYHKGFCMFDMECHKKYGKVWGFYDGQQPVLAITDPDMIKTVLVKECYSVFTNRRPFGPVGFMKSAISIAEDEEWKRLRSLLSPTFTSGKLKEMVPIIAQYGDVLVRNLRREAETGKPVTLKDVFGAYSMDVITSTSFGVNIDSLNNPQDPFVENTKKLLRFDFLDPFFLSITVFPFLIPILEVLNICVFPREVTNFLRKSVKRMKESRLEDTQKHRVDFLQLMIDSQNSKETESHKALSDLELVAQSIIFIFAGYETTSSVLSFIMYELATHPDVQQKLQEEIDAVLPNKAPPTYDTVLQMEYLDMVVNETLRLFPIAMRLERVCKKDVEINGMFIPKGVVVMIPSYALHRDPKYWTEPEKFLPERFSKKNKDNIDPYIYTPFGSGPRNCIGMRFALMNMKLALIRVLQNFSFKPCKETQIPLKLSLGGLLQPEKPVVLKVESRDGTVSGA
The subject of series [4] is Staphylococcus aureus. Description: Induction of resistant development in linezolid 5 passages resistance developed Staphylococcus aureus USA300 FPR3757 assessed as fold increase in MIC at sub-MIC concentration measured after 22 passages with conjugate by serial passage assay. The format is functional.
Series [5] can be described thus: Cardio-toxicity in human assessed as QT prolongation by measuring increase in mean QTc.
Series [6] can be described thus: Efflux ratio of apparent permeability from basolateral to apical side over apical to basolateral side in human Caco-2 cells at 10 uM. Type of series: ADME, cell-based. On the technique in general: Passage across Caco-2 layers is used to estimate intestinal permeability.
In series [7] the test system is Staphylococcus aureus. Briefly: Induction of resistant development in linezolid 5 passages resistance developed Staphylococcus aureus USA300 FPR3757 assessed as fold increase in MIC at sub-MIC concentration measured after 28 passages with conjugate by serial passage assay. The format is functional.
Series [8] relates to Staphylococcus aureus. Briefly: Induction of resistant development in linezolid 5 passages resistance developed Staphylococcus aureus USA300 FPR3757 assessed as fold increase in MIC at sub-MIC concentration measured after 13 passages with conjugate by serial passage assay. The format is functional.
The test system of series [9] is Staphylococcus aureus. Briefly: Induction of resistant development in -(6-(6-(Piperazin-1-y1)-9H-purin-9-y)methyl)pyridin-3-y1)-1H-1,2,3-triazol-1-yl)-22-deoxypleuromutilin-16 passages resistance developed Staphylococcus aureus USA300 FPR3757 assessed as fold increase in MIC at sub-MIC concentration measured after 22 passages with conjugate by serial passage assay. The format is functional.

The test system of series [10] is Staphylococcus aureus. Briefly: Induction of resistant development in lefamulin 5 passages resistance developed Staphylococcus aureus USA300 FPR3757 assessed as fold increase in MIC at sub-MIC concentration measured after 13 passages with conjugate by serial passage assay. The format is functional.
Series [11] concerns Staphylococcus aureus. Briefly: Induction of resistant development in lefamulin 5 passages resistance developed Staphylococcus aureus USA300 FPR3757 assessed as fold increase in MIC at sub-MIC concentration measured after 25 passages with conjugate by serial passage assay. Type of series: functional.
Series [12] can be described thus: AUC (0 to infinity) in pig plasma at 3 mg/kg, iv measured upto 240 mins by LC-MS/MS analysis. Type of series: ADME, organism-based, Sus scrofa. Conditions: in vivo, 4 h.
Series [13] is described as follows: Clearance in pig plasma at 10 mg/kg, po measured upto 240 mins by LC-MS/MS analysis. The format is ADME, organism-based, Sus scrofa.
A short description of series [14]: AUC (0 to infinity) in pig urine at 10 mg/kg, po measured upto 240 mins by LC-MS/MS analysis. Type of series: ADME, organism-based, Sus scrofa. The note with it: in vivo, 4 h.
Series [15] in a line: Tmax in pig plasma at 3 mg/kg, iv measured upto 240 mins by LC-MS/MS analysis. The format is ADME, organism-based, Sus scrofa.
The nature of series [16]: Elimination rate constant in pig urine at 3 mg/kg, iv measured upto 240 mins by LC-MS/MS analysis. Type of series: ADME, organism-based, Sus scrofa.
The nature of series [17]: AUC (0 to infinity) in NMRI female mouse at 30 mg/kg, po by HPLC analysis. Conditions: in vivo. The format is ADME, organism-based.
Series [18] can be described thus: Bioavailability in pig plasma at 10 mg/kg, po measured upto 240 mins by LC-MS/MS analysis. Type of series: ADME, organism-based, Sus scrofa.
Series [19] in a line: AUC (0 to infinity) in NMRI female mouse at 30 mg/kg, iv by HPLC analysis. The format is ADME, organism-based. The note with it: in vivo.
A short description of series [20]: Plasma concentration in pig at 10 mg/kg, po measured upto 240 mins by LC-MS/MS analysis. Type of series: ADME, organism-based, Sus scrofa.
A short description of series [21]: Elimination rate constant in NMRI female mouse at 20 mg/kg, sc by HPLC analysis. Type of series: ADME, organism-based. The note with it: in vivo.
Series [22] in a line: Cmax in NMRI female mouse at 20 mg/kg, sc by HPLC analysis. The format is ADME, organism-based. Conditions: in vivo.
A short description of series [23]: Cmax in NMRI female mouse at 30 mg/kg, iv by HPLC analysis. Type of series: ADME, organism-based. Conditions: in vivo.
The nature of series [24]: AUC (0 to infinity) in NMRI female mouse at 60 mg/kg, sc by HPLC analysis. Conditions: in vivo. The format is ADME, organism-based.
Series [25] is described as follows: Tmax in NMRI female mouse at 30 mg/kg, iv by HPLC analysis. The note with it: in vivo. Type of series: ADME, organism-based.
Series [26] in a line: Tmax in NMRI female mouse at 60 mg/kg, sc by HPLC analysis. The note with it: in vivo. Type of series: ADME, organism-based.
A short description of series [27]: Volume of distribution in pig plasma at 3 mg/kg, iv measured upto 240 mins by LC-MS/MS analysis. Type of series: ADME, organism-based, Sus scrofa.
The nature of series [28]: Half life in NMRI female mouse at 20 mg/kg, sc by HPLC analysis. The format is ADME, organism-based. The note with it: in vivo.
A short description of series [29]: Half life in NMRI female mouse at 30 mg/kg, iv by HPLC analysis. Type of series: ADME, organism-based. Conditions: in vivo.
Series [30] can be described thus: Cmax in pig urine at 10 mg/kg, po measured upto 240 mins by LC-MS/MS analysis. Type of series: ADME, organism-based, Sus scrofa.
The nature of series [31]: Elimination rate constant in pig plasma at 3 mg/kg, iv measured upto 240 mins by LC-MS/MS analysis. Type of series: ADME, organism-based, Sus scrofa.

Calls of active or inactive are those of the source.

Regarding `C=C[C@]1(C)C[C@@H](OC(=O)CS[C@@H]2CC[C@@H](N)C[C@H]2O)[C@]2(C)[C@H](C)CC[C@]3(CCC(=O)[C@H]32)[C@@H](C)[C@@H]1O` [LEFAMULIN], the fold change (FC) turned out to be 4 in series [1]; 32 in [4]; 32 in [7]; 16 in series [8]; 32 in series [9]; 32 in series [10]. Besides, the fold change (FC) in [11] turned out to be 64. In addition, in series [2], the result was inactive. The compound also gave a Ki in series [3] of 860 nM. In addition, the QTc increase in series [5] was 10 ms. Besides, in series [6], the efflux ratio at 10 µM was found to be 68.

On to `C=C[C@]1(C)C[C@@H](OC(=O)Cn2cc(-c3ccc(Cn4cnc5c(N6CCNCC6)ncnc54)nc3)nn2)[C@]2(C)[C@H](C)CC[C@]3(CCC(=O)[C@H]32)[C@@H](C)[C@@H]1O`, for which the AUC stood at 35.5 µg/mL/min in series [12]; 22.5 µg/mL/min in series [14]; 1.6 µg/mL/min in series [17]; 643 µg/mL/min in series [19]; 428 µg/mL/min in series [24]. In addition, in [13], the CL/F was 1420 mL/min/kg. Moreover, the figures for the Tmax in series [15], in series [25] and in [26] were 0 h, 0 h and 15 min, respectively. The figures for the k el at 4 h in series [16] and in series [31] were 0.000418 s⁻¹ and 0.000155 s⁻¹, respectively. Moreover, the bioavailability in series [18] stood at 6%. Further, the concentration at 4 h in [20] was found to be 49.7 ng/mL. The k el in series [21] was 9.33e-05 s⁻¹. Besides, the figures for the Cmax in series [22], in series [23] and in series [30] were 1180 ng/mL, 8560 ng/mL and 114 ng/mL, respectively. This compound had a Vd in [27] of 3.46 L/kg. The half-life in series [28] is 124 min; in series [29], 52.8 min.

The Ki is a measure of affinity in units of concentration, obtained from inhibition or displacement. Low readings indicate tighter binding, high ones weaker binding. Usually efflux ratio stands for the permeability from basolateral to apical divided by that in the opposite direction, in the common usage. In general, CL/F refers to clearance divided by bioavailability, as obtained after extravascular dosing. For orientation: Tmax means the time at which the peak concentration occurs. The bioavailability is dose-corrected exposure relative to a reference, in per cent. Low readings indicate little systemic uptake, high ones much systemic uptake. The term Cmax denotes the peak of the concentration-time curve. For orientation: Vd means a proportionality between amount in the body and measured concentration, not a real space. Broadly, the half-life is the time needed for the level to fall by half in the phase considered. The low end stands for fast loss, the high end for slow loss.
